Experimental findings from patent publication US20150025012A1, “METHODS AND COMPOSITIONS FOR IDENTIFICATION, ASSESSMENT AND TREATMENT OF CANCERS ASSOCIATED WITH HEDGEHOG SIGNALING” (Infinity Pharmaceuticals, Inc., priority 2010, published 2015) are described below.

Experiment [1] concerns Gli1 mRNA. The experiment is described as follows: Gli1 mRNA expression in tumor stroma (RT-PCR). The class given is in vivo, murine. Particulars: animals receiving IPI-926 (40 mg/kg) compared to vehicle. The text has this:
In each of these cases, the action of IPI-926 coincides with downregulation of mRNA for Gli1, an important molecule in the Hedgehog signaling pathway, in the tumor stroma of experimental animals receiving IPI-926 (FIG. 12A). The downregulation of Gli1 mRNA can be used as a functional readout for inhibition of Hedgehog signaling. Moreover, in these models, it appears to be the cancer cells that express the ligand of the Hedgehog signaling pathway (FIG. 12B). Thus, without being bound by theory, Applicants believe that the tumor cells express Hedgehog ligand which signals to a tumor associated stromal cell.
RNA for analysis was isolated from cell pellets or tumor tissue using the Ambion RNA 4-PCR isolation kit according to the manufacturer's guidance. Reverse transcription-PCR was performed for human GAPDH, Gli l and SHh and murine GAPDH, Gli1, PECAM and RGS5 using an ABI-7300 system with ABI primer/probes. Relative quantification of the expression data was obtained using the ΔΔCT method as described by Applied Biosystems.

The test system of experiment [2] is murine Gli1. The experiment is described as follows: Gli1 mRNA in sorted stromal cell fractions of tumors. The class given is in vivo. Particulars: Lin+/Lin- and CD31+/CD31- fractions; IPI-926 40 mg/kg 24 hours prior to sacrifice. The text has this: Since tumor-associated stroma is a complex mixture of different cell types, further experiments have been carried out to determine the identity of the IPI-926-responsive cells. Tumors were obtained from animals treated or untreated with IPI-926 and the cells from within the tumors were subsequently fractionated in the following manner. First, the human cancer cells were removed from the mixture using magnetic beads that were coated with an antibody against the cell surface marker, Ep-CAM. Those cells that remained were the murine stromal cells associated with that tumor. Next, these stromal cells were subsequently separated based on their expression of cell surface markers known to be associated with specific cell lineages. In one sample set, cells were separated based on their expression of a panel of markers specific for cells of the hematopoietic lineage. These cells can be referred to as either Lin− or Lin+. […]
Cells used for sorting experiments were obtained by the following procedure. […] After this incubation, the cells in the flow through and the column were then analyzed for their expression of specific mRNAs by RT-PCR.
RNA for analysis was isolated from cell pellets or tumor tissue using the Ambion RNA 4-PCR isolation kit according to the manufacturer's guidance. […] Relative quantification of the expression data was obtained using the ΔΔCT method as described by Applied Biosystems.

Experiment [3] concerns tumor stroma. Description: Microvascular density (CD31 IHC) in tumor. The class given is in vivo. As to conditions: after treatment with IPI-926.

“Also recorded” adds a separate entry of the source.

Regarding `CC1=C2C[C@H]3[C@@H](CC[C@@H]4C[C@H](NS(C)(=O)=O)CC[C@@]43C)[C@@H]2CC[C@@]2(C1)O[C@@H]1C[C@H](C)CN[C@H]1[C@H]2C` [IPI-926], in experiment [1], the “Gli1 mRNA expression in tumor stroma” value is recorded as “inhibition; also recorded: suppression; also recorded: downregulation”. In experiment [2], the “murine Gli1 inhibition in stromal cell fractions” value was “greatest degree of murine Gli1 inhibition was present in both the Lin-population and CD31-population”. Also, the “microvascular density (MVD, CD31 IHC)” value in experiment [3] is listed as “increased”.
